Data: patent publication US12378224B2 (Dong-A Socio Holdings Co., Ltd., priority 2016, dated 2025)

Target: human MER (528-end) (Homo sapiens (Human), UniProt Q12866)
Experiment: HTRF Kinase Activity Biochemical Assay (KinEASE-TK)
Conditions: 10 uM ATP
In short: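 Recombinant human MER (528-end) phosphorylated biotin-TK peptide substrate, 1 h at room temperature. Reaction stopped with detection buffer containing 0.375 nM Eu3+-cryptate anti-TK antibody and 0.062 uM streptavidin-XL665, 1 h further. Activity taken as HTRF ratio 665/620 nm ×10,000, 340 nm excitation.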

Sequence of human MER (528-end) (Q12866 528-999 limits assumed): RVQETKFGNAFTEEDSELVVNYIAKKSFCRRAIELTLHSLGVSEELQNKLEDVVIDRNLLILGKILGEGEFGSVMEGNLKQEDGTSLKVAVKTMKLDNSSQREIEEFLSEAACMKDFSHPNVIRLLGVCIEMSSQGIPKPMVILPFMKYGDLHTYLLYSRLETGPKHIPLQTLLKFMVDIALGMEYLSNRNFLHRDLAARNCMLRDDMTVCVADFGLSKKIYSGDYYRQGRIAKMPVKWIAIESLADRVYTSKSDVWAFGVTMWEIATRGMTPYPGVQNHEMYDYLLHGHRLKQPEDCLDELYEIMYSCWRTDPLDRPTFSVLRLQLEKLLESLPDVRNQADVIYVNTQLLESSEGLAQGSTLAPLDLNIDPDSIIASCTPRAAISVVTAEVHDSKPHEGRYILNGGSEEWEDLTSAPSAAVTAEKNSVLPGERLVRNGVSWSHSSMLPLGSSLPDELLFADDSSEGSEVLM

Compound	IC50
Cn1cc(-c2cnc(N)c(C(=O)N[C@@H]3CCN(C(=S)Nc4cccc(-c5ccccc5)c4)C3)c2)cn1 [Example 51, (R)—N-(1-([1,1′-biphenyl]-3-ylcarbamothioyl)pyrrolidin-3-yl)-2-amino-5-(1-methyl-1H-pyrazol-4-yl)nicotinamide]	100 to 1000 nM
Cn1cc(-c2cnc(N)c(C(=O)N[C@@H]3CCN(C(=O)c4ccc(-c5ccccc5)cn4)C3)c2)cn1 [Example 396, (R)-2-amino-5-(1-methyl-1H-pyrazol-4-yl)-N-(1-(5-phenylpicolinoyl)pyrrolidin-3-yl)nicotinamide]	> 1000 nM
Cn1cc(-c2cnc(N)c(C(=O)N[C@@H]3CCN(C(=O)Oc4cccc(-c5ccc(CN6CCC(C(=O)O)C6)cc5)c4)C3)c2)cn1 (stereo partly drawn) [Example 329, 1-((3′-(((R)-3-(2-amino-5-(1-methyl-1H-pyrazol-4-yl)nicotinamido)pyrrolidine-1-carbonyl)oxy)-[1,1′-biphenyl]-4-yl)methyl)pyrrolidine-3-carboxylic acid]	> 1000 nM
Cn1cc(-c2cnc(N)c(C(=O)N[C@@H]3CCN(C(=O)c4ccc(/C=C/C5CCNCC5)cc4)C3)c2)cn1 [Example 827, (R,E)-2-amino-5-(1-methyl-1H-pyrazol-4-yl)-N-(1-(4-(2-(piperidin-4-yl)vinyl)benzoyl)pyrrolidin-3-yl)nicotinamide]	> 1000 nM
Cn1cc(-c2cnc(N)c(C(=O)N[C@@H]3CCN(C(=O)Oc4cccc(OCc5ccccc5)c4)C3)c2)cn1 [Example 59, 3-(benzyloxy)phenyl (R)-3-(2-amino-5-(1-methyl-1H-pyrazol-4-yl)nicotinamido)pyrrolidine-1-carboxylate]	> 1000 nM
CN1CCN(CCc2ccc(-c3cccc(C(=O)N4CC[C@@H](NC(=O)c5cc(-c6cnn(C)c6)cnc5N)C4)c3)cc2)CC1 [Example 455, (R)-2-amino-5-(1-methyl-1H-pyrazol-4-yl)-N-(1-(4′-(2-(4-methylpiperazin-1-yl)ethyl)-[1,1′-biphenyl]-3-carbonyl)pyrrolidin-3-yl)nicotinamide]	> 1000 nM
Cn1cc(-c2cnc(N)c(C(=O)N[C@@H]3CCN(C(=O)c4cccc(-c5ccncc5)c4)C3)c2)cn1 [Example 473, (R)-2-amino-5-(1-methyl-1H-pyrazol-4-yl)-N-(1-(3-(pyridin-4-yl)benzoyl)pyrrolidin-3-yl)nicotinamide]	> 1000 nM
CN1CCN(Cc2ccc(-c3cccc(NC(=S)N4CC[C@@H](NC(=O)c5cc(-c6cnn(C)c6)cnc5N)C4)c3)cc2)CC1 [Example 274, (R)-2-amino-5-(1-methyl-1H-pyrazol-4-yl)-N-(1-((4′-((4-methylpiperazin-1-yl)methyl)-[1,1′-biphenyl]-3-yl)carbamothioyl)pyrrolidin-3-yl)nicotinamide]	10 to 100 nM
Cn1cc(-c2cnc(N)c(C(=O)N[C@@H]3CCN(C(=O)Oc4cc(F)cc(F)c4)C3)c2)cn1 [Example 90, 3,5-difluorophenyl (R)-3-(2-amino-5-(1-methyl-1H-pyrazol-4-yl)nicotinamido)pyrrolidine-1-carboxylate]	> 1000 nM
CN1CCC(n2cc(-c3cnc(N)c(C(=O)N[C@@H]4CCN(C(=O)Oc5cccc(-c6ccccc6)c5)C4)c3)cn2)CC1 [Example 96, [1,1′-biphenyl]-3-yl (R)-3-(2-amino-5-(1-(1-methylpiperidin-4-yl)-1H-pyrazol-4-yl)nicotinamido)pyrrolidine-1-carboxylate]	100 to 1000 nM
Cn1cc(-c2cnc(N)c(C(=O)N[C@@H]3CCN(C(=O)N[C@H]4CCC[C@@H]4OCc4ccccc4)C3)c2)cn1 [Example 40, 2-amino-N—((R)-1-(((1S,2S)-2-(benzyloxy)cyclopentyl)carbamoyl)pyrrolidin-3-yl)-5-(1-methyl-1H-pyrazol-4-yl)nicotinamide]	> 1000 nM
Cn1cc(-c2cnc(N)c(C(=O)N[C@@H]3CCN(C(=O)c4ccc(-c5ccc(F)nc5)cc4)C3)c2)cn1 [Example 357, (R)-2-amino-N-(1-(4-(6-fluoropyridin-3-yl)benzoyl)pyrrolidin-3-yl)-5-(1-methyl-1H-pyrazol-4-yl)nicotinamide]	> 1000 nM
Cc1ccc(C(=O)N2CC[C@@H](NC(=O)c3cc(-c4cnn(C)c4)cnc3N)C2)cc1-c1cccc(Cl)c1 [Example 484, (R)-2-amino-N-(1-(3′-chloro-6-methyl-[1,1′-biphenyl]-3-carbonyl)pyrrolidin-3-yl)-5-(1-methyl-1H-pyrazol-4-yl)nicotinamide]	> 1000 nM
Cn1cc(-c2cnc(N)c(C(=O)N[C@@H]3CCN(C(=O)c4cc5cc(Cl)ccc5o4)C3)c2)cn1 [Example 403, (R)-2-amino-N-(1-(5-chlorobenzofuran-2-carbonyl)pyrrolidin-3-yl)-5-(1-methyl-1H-pyrazol-4-yl)nicotinamide]	> 1000 nM
Cn1cc(-c2cnc(N)c(C(=O)N[C@@H]3CCN(C(=O)Oc4cccc(-c5ccc(CN[C@@H]6CCNC6)cc5)c4)C3)c2)cn1 [Example 313, 4′-((((R)-pyrrolidin-3-yl)amino)methyl)-[1,1′-biphenyl]-3-yl (R)-3-(2-amino-5-(1-methyl-1H-pyrazol-4-yl)nicotinamido)pyrrolidine-1-carboxylate]	100 to 1000 nM
Cn1cc(-c2cnc(N)c(C(=O)N[C@@H]3CCN(C(=O)c4ccc(-c5ccc(C(C)(C)C)cc5)cc4)C3)c2)cn1 [Example 378, (R)-2-amino-N-(1-(4′-(tert-butyl)-[1,1′-biphenyl]-4-carbonyl)pyrrolidin-3-yl)-5-(1-methyl-1H-pyrazol-4-yl)nicotinamide]	> 1000 nM
CN1CCN(C(C)(C)c2ccc(-c3ccc(C(=O)N4CC[C@@H](NC(=O)c5cc(-c6cnn(C)c6)cnc5N)C4)cc3)cc2)CC1 [Example 386, (R)-2-amino-5-(1-methyl-1H-pyrazol-4-yl)-N-(1-(4′-(2-(4-methylpiperazin-1-yl)propan-2-yl)-[1,1′-biphenyl]-4-carbonyl)pyrrolidin-3-yl)nicotinamide]	100 to 1000 nM
Cn1cc(-c2cnc(N)c(C(=O)N[C@@H]3CCN(C(=O)Oc4cccc(Cl)c4Cl)C3)c2)cn1 [Example 60, 2,3-dichlorophenyl (R)-3-(2-amino-5-(1-methyl-1H-pyrazol-4-yl)nicotinamido)pyrrolidine-1-carboxylate]	> 1000 nM
CN1CCN(Cc2ccc(-c3cccc(C(=O)N4CC[C@@H](NC(=O)c5cc(-c6cnn(C)c6)cnc5N)C4)c3)cc2)CC1 [Example 390, (R)-2-amino-5-(1-methyl-1H-pyrazol-4-yl)-N-(1-(4′-((4-methylpiperazin-1-yl)methyl)-[1,1′-biphenyl]-3-carbonyl)pyrrolidin-3-yl)nicotinamide]	> 1000 nM
CN1CCC(n2cc(-c3cnc(N)c(C(=O)N[C@@H]4CCN(C(=O)c5ccc(-c6ccccc6)cc5)C4)c3)cn2)CC1 [Example 563, (R)—N-(1-([1,1′-biphenyl]-4-carbonyl)pyrrolidin-3-yl)-2-amino-5-(1-(1-methylpiperidin-4-yl)-1H-pyrazol-4-yl)nicotinamide]	10 to 100 nM
Cc1cc(OC(=O)N2CC[C@@H](NC(=O)c3cc(-c4cnn(C)c4)cnc3N)C2)ccc1Cl [Example 86, 4-chloro-3-methylphenyl (R)-3-(2-amino-5-(1-methyl-1H-pyrazol-4-yl)nicotinamido)pyrrolidine-1-carboxylate]	> 1000 nM
Cn1cc(-c2cnc(N)c(C(=O)N[C@@H]3CCN(C(=O)c4cccc(Br)c4)C3)c2)cn1 [Example 733, (R)-2-amino-N-(1-(3-bromobenzoyl)pyrrolidin-3-yl)-5-(1-methyl-1H-pyrazol-4-yl)nicotinamide]	> 1000 nM
